The values that follow come from US20100105651A1, “ANTAGONISTS OF SNS SODIUM CHANNELS” (priority 2005, published 2010).

The structures appear in SMILES notation.

In the experiment the target is T1, human NaV1.8 (hNaV1.8) ion channel (Homo sapiens, UniProt Q9Y5Y9).
T1 construct: expressed in transfected cells
Briefly: Inhibition of Human NaV1.8 stably expressed in SH-SY-5Y cells (membrane potential dye fluorescence assay). The note with it: SH-SY-5Y cells stably expressing hNaV1.8; FLIPR membrane potential dye; 10 μM pyrethroid, 250 nM TTX; test range 100 μM-0.05 μM; read-out: hNav1.8 IC50. The format is cell-based. The protocol:
Inhibition of Human NaV1.8 stably expressed in SH-SY-5Y cells
A SH-SY-5Y neuroblastoma cell line stably expressing the human NaV1.8 (hNaV1.8) ion channel was constructed. This cell line has been used to develop a medium to high throughput assay for determining the ability of test compounds to inhibit membrane depolarisation mediated via the hNaV1.8 channel.
SH-SY-5Y hNaV1.8 are grown in adherent monolayer culture using 50:50 Ham's F-12/EMEM tissue culture medium supplemented with 15% (v/v) foetal bovine serum; 2 mM L-glutamine, 1% NEAA and 600 μg·ml^−1 Geneticin sulphate. Cells are removed from the tissue culture flask using trypsin/EDTA and re-plated into black walled, clear bottom 96-well assay plates at 50,000 cells·well^−1 24 hours prior to assay.
On the day of assay the cell assay plates are washed to remove cell culture medium using a sodium free assay buffer (145 mM tetramethyl ammonium chloride; 2 mM calcium chloride; 0.8 mM magnesium chloride hexahydrate; 10 mM HEPES; 10 mM glucose; 5 mM potassium chloride, pH 7.4). Fluorescent membrane potential dye solution (FLIPR™ membrane potential dye, Molecular Devices Corporation), containing 10 μM of a pyrethroid to prevent channel inactivation and 250 nM tetrodotoxin (TTX) to reduce interference from TTX-sensitive sodium channels present in the cell line. Test compound, initially dissolved in dimethyl sulfoxide but further diluted in sodium free buffer, is added to achieve the final test concentration range of 100 μM-0.05 μM.
Cell plates are incubated for 30 minutes at room temperature to allow equilibration of dye and test compound. Plates are then transferred to a fluorescence plate reader for fluorescence measurement using an excitation wavelength of 530 nm whilst measuring fluorescence emission at 565 nm. […] Membrane depolarisation is registered by an increase in fluorescence emission at 565 nm.
The change in fluorescence seen in each test well upon the addition of sodium containing buffer is calculated relative to the baseline fluorescence for that well. This figure is then used for calculating the IC50 for each test compound.

T1 sequence (Q9Y5Y9 whole entry): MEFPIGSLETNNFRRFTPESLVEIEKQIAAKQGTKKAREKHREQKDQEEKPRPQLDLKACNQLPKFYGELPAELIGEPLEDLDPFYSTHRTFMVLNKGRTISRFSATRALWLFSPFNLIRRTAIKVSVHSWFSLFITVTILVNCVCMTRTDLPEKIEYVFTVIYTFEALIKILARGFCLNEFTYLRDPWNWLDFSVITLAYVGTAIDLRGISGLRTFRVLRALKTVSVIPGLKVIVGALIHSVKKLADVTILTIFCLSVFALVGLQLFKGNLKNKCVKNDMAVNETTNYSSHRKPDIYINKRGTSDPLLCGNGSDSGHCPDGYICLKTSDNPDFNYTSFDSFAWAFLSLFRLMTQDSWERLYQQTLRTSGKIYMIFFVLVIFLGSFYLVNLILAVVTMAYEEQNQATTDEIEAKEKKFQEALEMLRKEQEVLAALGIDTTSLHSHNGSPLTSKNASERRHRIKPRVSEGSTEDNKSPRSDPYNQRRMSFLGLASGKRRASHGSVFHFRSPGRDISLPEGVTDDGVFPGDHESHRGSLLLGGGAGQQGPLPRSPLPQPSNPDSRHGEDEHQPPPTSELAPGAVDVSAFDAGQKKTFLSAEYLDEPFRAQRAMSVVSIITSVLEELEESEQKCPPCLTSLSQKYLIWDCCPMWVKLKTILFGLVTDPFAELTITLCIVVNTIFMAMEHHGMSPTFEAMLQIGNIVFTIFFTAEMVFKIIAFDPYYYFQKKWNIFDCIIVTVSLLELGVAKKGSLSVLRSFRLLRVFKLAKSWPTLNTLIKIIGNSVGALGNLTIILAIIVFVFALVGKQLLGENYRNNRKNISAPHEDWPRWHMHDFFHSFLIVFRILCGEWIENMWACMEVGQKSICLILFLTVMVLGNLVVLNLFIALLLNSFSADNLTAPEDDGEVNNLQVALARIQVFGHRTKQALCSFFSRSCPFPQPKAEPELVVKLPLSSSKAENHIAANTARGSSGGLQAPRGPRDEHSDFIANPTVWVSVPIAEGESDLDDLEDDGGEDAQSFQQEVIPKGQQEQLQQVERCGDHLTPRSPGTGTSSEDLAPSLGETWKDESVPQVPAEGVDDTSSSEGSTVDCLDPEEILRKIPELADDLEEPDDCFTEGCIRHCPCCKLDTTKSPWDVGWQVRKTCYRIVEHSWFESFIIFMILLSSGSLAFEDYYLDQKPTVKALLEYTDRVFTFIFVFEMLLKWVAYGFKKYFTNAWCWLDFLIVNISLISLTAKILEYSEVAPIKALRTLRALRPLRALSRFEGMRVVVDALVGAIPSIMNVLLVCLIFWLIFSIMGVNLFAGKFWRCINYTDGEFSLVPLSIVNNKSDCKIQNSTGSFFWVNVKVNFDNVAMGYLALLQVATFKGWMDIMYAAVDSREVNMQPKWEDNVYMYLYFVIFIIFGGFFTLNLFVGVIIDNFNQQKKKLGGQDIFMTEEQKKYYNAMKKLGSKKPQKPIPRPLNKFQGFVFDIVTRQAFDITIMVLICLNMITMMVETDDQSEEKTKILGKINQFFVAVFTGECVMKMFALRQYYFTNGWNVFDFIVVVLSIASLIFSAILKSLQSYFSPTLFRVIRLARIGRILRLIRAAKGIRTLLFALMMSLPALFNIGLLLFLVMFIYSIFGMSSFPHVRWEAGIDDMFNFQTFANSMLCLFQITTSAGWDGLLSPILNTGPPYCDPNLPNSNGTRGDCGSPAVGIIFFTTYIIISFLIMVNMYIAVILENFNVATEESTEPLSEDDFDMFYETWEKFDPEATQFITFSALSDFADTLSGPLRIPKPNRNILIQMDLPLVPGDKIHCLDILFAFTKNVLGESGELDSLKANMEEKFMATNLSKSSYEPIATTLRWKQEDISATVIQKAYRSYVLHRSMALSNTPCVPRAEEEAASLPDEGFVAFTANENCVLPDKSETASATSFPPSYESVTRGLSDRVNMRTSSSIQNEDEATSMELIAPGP

For the compound `Cc1ccccc1C(C)N(C)C1CN(C(=O)Nc2ccc(Oc3ccccc3)cc2)C1` (stereo not shown) [Example 62, 3-[Methyl-(1-o-tolyl-ethyl)-amino]-azetidine-1-carboxylic acid (4-phenoxy-phenyl)-amide], the IC50 – broadly, the midpoint of a concentration-inhibition curve – came out at 720 nM.
As to `CC(NC1CN(C(=O)Nc2ccc(Oc3ccccc3)cc2)C1)c1ccccc1Cl` (stereo not shown) [Example 63, 3-[1-(2-Chloro-phenyl)-ethylamino]-azetidine-1-carboxylic acid (4-phenoxy-phenyl)-amide], the IC50 is 630 nM.
In the case of `CCCCOc1ccc(NC(=O)N2CC(NC(C)c3ccccc3C)C2)cc1` (stereo not shown) [Example 65, 3-(1-o-Tolyl-ethylamino)-azetidine-1-carboxylic acid (4-butoxy-phenyl)-amide], the IC50 is 1420 nM.
As for `CCCCOc1ccc(NC(=O)N2CC(NC(C)c3ccc(F)cc3)C2)cc1` (stereo not shown) [Example 66, 3-[1-(4-Fluoro-phenyl)-ethylamino]-azetidine-1-carboxylic acid (4-butoxy-phenyl)-amide], the IC50 was found to be 2270 nM.
As to `CC(c1ccccc1Cl)N(C)C1CN(C(=O)Nc2ccc(Oc3ccccc3)cc2)C1` (stereo not shown) [Example 67, 3-{[1-(2-Chloro-phenyl)-ethyl]-methyl-amino}-azetidine-1-carboxylic acid (4-phenoxy-phenyl)-amide], the 50% inhibitory concentration (IC50) was found to be 550 nM.
With `CCCCOc1cccc(NC(=O)N2CC(NC(C)c3ccccc3C)C2)c1` (stereo not shown) [Example 68, 3-(1-o-Tolyl-ethylamino)-azetidine-1-carboxylic acid (3-butoxy-phenyl)-amide], the IC50 was 830 nM.
Consider `CCCCOc1cccc(NC(=O)N2CC(NC(C)c3ccc(F)cc3)C2)c1` (stereo not shown) [Example 69, 3-[1-(4-Fluoro-phenyl)-ethylamino]-azetidine-1-carboxylic acid (3-butoxy-phenyl)-amide], for which the IC50 was determined as 1320 nM.
The result for `CC(NC1CN(C(=O)Nc2ccc(Oc3ccccc3)cc2)C1)c1ccc(OC(F)(F)F)cc1` (stereo not shown) [Example 70, 3-[1-(4-Trifluoromethoxy-phenyl)-ethylamino]-azetidine-1-carboxylic acid (4-phenoxy-phenyl)-amide] reads 22100 nM; that for `CCCCOc1ccc(NC(=O)N2CC(NC(C)c3ccccc3Cl)C2)cc1` (stereo not shown) [Example 71, 3-[1-(2-Chloro-phenyl)-ethylamino]-azetidine-1-carboxylic acid (4-butoxy-phenyl)-amide], 770 nM.
Consider `CC(NC1CN(C(=O)Nc2ccc(OC(F)(F)F)cc2)C1)c1ccc(F)cc1` (stereo not shown) [Example 72, 3-[1-(4-Fluoro-phenyl)-ethylamino]-azetidine-1-carboxylic acid (4-trifluoromethoxy-phenyl)-amide], for which the IC50 was found to be 3210 nM.
For `CC(NC1CN(C(=O)Nc2cccc(C(F)(F)F)c2)C1)c1ccc(F)cc1` (stereo not shown) [Example 73, 3-[1-(4-Fluoro-phenyl)-ethylamino]-azetidine-1-carboxylic acid (3-trifluoromethyl-phenyl)-amide], the IC50 stood at 2560 nM.
Turning to `CC(NC1CN(C(=O)Nc2cccc(C(F)(F)F)c2)C1)c1ccccc1Cl` (stereo not shown) [Example 74, 3-[1-(2-Chloro-phenyl)-ethylamino]-azetidine-1-carboxylic acid (3-trifluoromethyl-phenyl)-amide], the IC50 was 2860 nM.
For the compound `Cc1ccccc1C(C)NC1CN(C(=O)Nc2cccc(C(F)(F)F)c2)C1` (stereo not shown) [Example 75, 3-(1-o-Tolyl-ethylamino)-azetidine-1-carboxylic acid (3-trifluoromethyl-phenyl)-amide], the IC50 is 2260 nM.
For `CCCCOc1ccc(NC(=O)N2CC(N3CCc4cccc(OC)c4C3)C2)cc1` [Example 76, 3-(8-Methoxy-3,4-dihydro-1H-isoquinolin-2-yl)-azetidine-1-carboxylic acid (4-butoxy-phenyl)-amide], the half-inhibitory concentration (IC50) was found to be 1410 nM.
On to `CC(NC1CN(C(=O)Nc2ccc(Oc3ccccc3)cc2)C1)c1ccc(Oc2ccccc2)cc1` (stereo not shown) [Example 77, 3-[1-(4-Phenoxy-phenyl)-ethylamino]-azetidine-1-carboxylic acid (4-phenoxy-phenyl)-amide], for which the half-inhibitory concentration (IC50) is 1090 nM.
For the compound `CC(NC1CN(C(=O)Nc2ccc(C(F)(F)F)cc2)C1)c1ccc(Oc2ccccc2)cc1` (stereo not shown) [Example 78, 3-[1-(4-Phenoxy-phenyl)-ethylamino]-azetidine-1-carboxylic acid (4-trifluoromethyl-phenyl)-amide], the IC50 was 1300 nM.
Turning to `CC(NC1CN(C(=O)Nc2ccc(Oc3ccccc3)cc2)C1)c1ccc(F)cc1` (stereo not shown) [Example 79, 3-[1-(4-Fluoro-phenyl)-ethylamino]-azetidine-1-carboxylic acid (4-phenoxy-phenyl)-amide], the IC50 is 760 nM.
As for `CC(c1ccc(OC(F)(F)F)cc1)N(C)C1CN(C(=O)Nc2ccc(Oc3ccccc3)cc2)C1` (stereo not shown) [Example 80, 3-{Methyl-[1-(4-trifluoromethoxy-phenyl)-ethyl]-amino}-azetidine-1-carboxylic acid (4-phenoxy-phenyl)-amide], the IC50 amounted to 1220 nM.
As for `CC(c1ccc(F)cc1)N(C)C1CN(C(=O)Nc2cc(C(F)(F)F)ccc2F)C1` (stereo not shown) [Example 81, 3-{[1-(4-Fluoro-phenyl)-ethyl]-methyl-amino}-azetidine-1-carboxylic acid (2-fluoro-5-trifluoromethyl-phenyl)-amide], the IC50 was determined as 8370 nM.
For the compound `CC(c1ccc(F)cc1)N(C)C1CN(C(=O)Nc2cc(F)cc(C(F)(F)F)c2)C1` (stereo not shown) [Example 82, 3-{[1-(4-Fluoro-phenyl)-ethyl]-methyl-amino}-azetidine-1-carboxylic acid (3-fluoro-5-trifluoromethyl-phenyl)-amide], the IC50 worked out at 5730 nM.
Turning to `CC(c1ccc(F)cc1)N(C)C1CN(C(=O)Nc2ccc(F)c(C(F)(F)F)c2)C1` (stereo not shown) [Example 83, 3-{[1-(4-Fluoro-phenyl)-ethyl]-methyl-amino}-azetidine-1-carboxylic acid (4-fluoro-3-trifluoromethyl-phenyl)-amide], the IC50 was 3930 nM.
As for `CC(c1ccc(F)cc1)N(C)C1CN(C(=O)Nc2cccc(C(F)(F)F)c2F)C1` (stereo not shown) [Example 84, 3-{[1-(4-Fluoro-phenyl)-ethyl]-methyl-amino}-azetidine-1-carboxylic acid (2-fluoro-3-trifluoromethyl-phenyl)-amide], the IC50 is 5800 nM.
In the case of `CCCCOc1cccc(NC(=O)N2CC(N(C)C(C)c3ccc(F)cc3)C2)c1` (stereo not shown) [Example 85, 3-{[1-(4-Fluoro-phenyl)-ethyl]-methyl-amino}-azetidine-1-carboxylic acid (3-butoxy-phenyl)-amide], the IC50 worked out at 1460 nM.
As for `CCCCOc1ccc(NC(=O)N2CC(N(C)C(C)c3ccc(F)cc3)C2)cc1` (stereo not shown) [Example 86, 3-{[1-(4-Fluoro-phenyl)-ethyl]-methyl-amino}-azetidine-1-carboxylic acid (4-butoxy-phenyl)-amide], the IC50 turned out to be 3530 nM.
Under `CCCCOc1cccc(NC(=O)N2CC(N(C)C(C)c3ccccc3C)C2)c1` (stereo not shown) [Example 87, 3-[Methyl-(1-o-tolyl-ethyl)-amino]-azetidine-1-carboxylic acid (3-butoxy-phenyl)-amide] stands 1030 nM; under `CC(NC1CN(C(=O)Nc2ccc(Oc3ccccc3)cc2)C1)c1ccccc1C(F)(F)F` (stereo not shown) [Example 88, 3-[1-(2-Trifluoromethyl-phenyl)-ethylamino]-azetidine-1-carboxylic acid (4-phenoxy-phenyl)-amide], 1180 nM.
For the compound `CCCCOc1ccc(NC(=O)N2CC(N(C)C(C)c3ccccc3C)C2)cc1` (stereo not shown) [Example 89, 3-[Methyl-(1-o-tolyl-ethyl)-amino]-azetidine-1-carboxylic acid (4-butoxy-phenyl)-amide], the IC50 amounted to 580 nM.
Consider `CC(c1ccc(Oc2ccccc2)cc1)N(C)C1CN(C(=O)Nc2ccc(C(F)(F)F)cc2)C1` (stereo not shown) [Example 90, 3-{Methyl-[1-(4-phenoxy-phenyl)-ethyl]-amino}-azetidine-1-carboxylic acid (4-trifluoromethyl-phenyl)-amide], for which the IC50 is 1430 nM.
Take `CC(c1ccc(F)cc1)N(C)C1CN(C(=O)Nc2ccc(Oc3ccccc3)cc2)C1` (stereo not shown) [Example 91, 3-{[1-(4-Fluoro-phenyl)-ethyl]-methyl-amino}-azetidine-1-carboxylic acid (4-phenoxy-phenyl)-amide]: the IC50 was 690 nM.
As for `CC(c1ccc(F)cc1Cl)N(C(=O)C(F)(F)F)C1CN(C(=O)Nc2ccc(Oc3ccccc3)cc2)C1` (stereo not shown) [Example 92, 3-[[1-(2-Chloro-4-fluoro-phenyl)-ethyl]-(2,2,2-trifluoro-acetyl)-amino]-azetidine-1-carboxylic acid (4-phenoxy-phenyl)-amide], the IC50 amounted to 15100 nM.
For the compound `CC(c1ccccc1C(F)(F)F)N(C)C1CN(C(=O)Nc2ccc(Oc3ccccc3)cc2)C1` (stereo not shown) [Example 93, 3-{Methyl-[1-(2-trifluoromethyl-phenyl)-ethyl]-amino}-azetidine-1-carboxylic acid (4-phenoxy-phenyl)-amide], the IC50 was found to be 1800 nM.
